# What was measured:
# PC3 = test: AlamarBlue cell viability assay, PC3; type: cell-based; conditions: Homo sapiens, PC-3, Prostate
# Procedure: (§1) The human immortalized mammary epithelial cell lines, MCF10A, and MCF12A; and immortalized hepatocellular epithelial cell line, LO2 were obtained from the American Type Culture Collection (ATCC, Rockville, Md.) and were cultured as per ATCC propagation instructions. MC cell lines, MCF7, T47D, BT474, BT20, MDA-MB-361, MDA-MB-436, MDA-MB-468, and MDA-MB-231; endometrial carcinoma cell lines, Ishikawa, ECC1, RL95-2 and AN3; hepatocellular carcinoma cell lines, Hep3B, H2P, and H2M; colon carcinoma cell lines, DLD-1, and Caco-2; and prostate carcinoma cell lines, PC3, LNCaP, and DU145 were obtained from the American Type Culture Collection (ATCC, Rockville, Md.). Pancreatic carcinoma cell lines, AsPC-1 and BxPC-3; Lung carcinoma cell lines, HCC-827, NCI-H1975, HCC-4006, PC-14, and NCI-H1299; and Thyroid carcinoma cell lines HTH83, CAL62, T238, and OGK-M were obtained from Prof. H. Phillip Koeffler's laboratory at The Cancer Science Institute of Singapore, National University of Singapore (NUS). Gastric carcinoma cell lines, AGS, MKN-28, MKN-45, and A2-528 were obtained from Prof. […]
# (§2) In table 9 IC50 values of compound 43 compound library in several cancer cell lines are tabulated, using an AlamarBlue® cell viability assay as previously described in Pandey V et al., Breast Cancer Res. 2014; 16(5):429. Statistical analysis was assessed by using GraphPad Prism5. […]
# Ishikawa = test: AlamarBlue cell viability assay, Ishikawa; type: cell-based; conditions: Homo sapiens, Endometrial
# Procedure: as §1, §2
# [1] = tested on: TFF3-high expressing mammary carcinoma (MC) cell lines; test: AlamarBlue viability and Annexin V-FITC/PI flow cytometry in mammary carcinoma cell lines (FIG. 1); type: cell-based, human
# Description: (A) Inhibitory concentration 50% (IC50) values for compound 43 in the MC cell lines are tabulated, using an AlamarBlue™ cell viability assay as previously described in Pandey V et al., Breast Cancer Res. 2014; 16(5):429. (B) Measured dose-dependent manner effect of compound 43 on the viability of MC cells (left-side, TFF3-high and right, TFF3-low) using AlamarBlue™ viability assay as previously described (ibid). (C) Apoptotic cell death of mammary carcinoma cell lines measured after treatment with 10 μM compound 43 using flow cytometry analysis at 24 hour as described previously in Keerthy H K et al., PloS one. 2014; 9(9):e107118. Annexin V-FITC staining is indicated on the X-axis and PI staining on the Y-axis. […] Acquisition of Annexin V and PI data were represented as percentage (%) in each quadrant. Note: CM, conditioned media; MCF10A and MCF12A, non-transformed immortalized-mammary epithelial cell line. Points are mean of triplicate experiments; bars, ±SD. Statistical significance was assessed by using an unpaired two-tailed Student's t test (P<0.05 was considered as significant) using GraphPad Prism5. Columns are mean of triplicate experiments; bars, ±SD. **P<0.001, *P<0.05.
# BT474 = test: qPCR analysis of mRNA levels of genes associated with oncogenic progression, BT474; type: cell-based, human; conditions: BT474, 10 μM
# Procedure: Total RNA was isolated from cells using TRIzol Plus RNA Purification system as previously described in Pandey V et al., Endocrinology. 2010; 151(3):909-920. qPCR assays were performed as previously described in Pandey V et al., Endocrinology. 2010; 151(3):909-920; and Pandey V et al., Endocrinology. 2008; 149(8):3909-3919. Gene expression analysis was performed as previously described in Pandey V et al., Endocrinology. 2010; 151(3):909-920; and Pandey V et al., Endocrinology. 2008; 149(8):3909-3919.
# AsPC-1 = test: AlamarBlue cell viability assay, AsPC-1; type: cell-based; conditions: Homo sapiens, ASPC1, Pancreatic
# Procedure: as §1, §2
smiles,measurement,setting,value
"Cc1cc(-c2ccc(C3C(C#N)=C(N)Oc4c3c(=O)oc3ccccc43)cc2)cnc1F (stereo not drawn) [Compound 43, 2-Amino-4-(4-(6-fluoro-5-methylpyridin-3-yl)phenyl)-5-oxo-4H,5H-pyrano[3,2-c]chromene-3-carbonitrile]",IC50,PC3,680 nM
same,IC50,Ishikawa,940 nM
same,apoptosis,"[1]; 10 μM, 24 hour, Annexin V-FITC/PI flow cytometry",stimulates apoptosis
same,cell viability,[1]; AlamarBlue,suppresses cell viability
same,"APAF1 mRNA, Fold change relative to vehicle control",BT474,1.27 fold
same,"ATM mRNA, Fold change relative to vehicle control",BT474,0.80 fold
same,"BAD mRNA, Fold change relative to vehicle control",BT474,0.04 fold
same,"BAK1 mRNA, Fold change relative to vehicle control",BT474,1.92 fold
same,"BAX mRNA, Fold change relative to vehicle control",BT474,21.55 fold
same,"BCL2L1 mRNA, Fold change relative to vehicle control",BT474,0.05 fold
same,"BCL2 mRNA, Fold change relative to vehicle control",BT474,0.02 fold
same,"BCLAF1 mRNA, Fold change relative to vehicle control",BT474,1.26 fold
same,"BRCA1 mRNA, Fold change relative to vehicle control",BT474,0.47 fold
same,"CASP7 mRNA, Fold change relative to vehicle control",BT474,103.76 fold
same,"CCND1 mRNA, Fold change relative to vehicle control",BT474,0.04 fold
same,"CDC25A mRNA, Fold change relative to vehicle control",BT474,0.15 fold
same,"CDK2 mRNA, Fold change relative to vehicle control",BT474,1.05 fold
same,"CDK4 mRNA, Fold change relative to vehicle control",BT474,0.66 fold
same,"CDKN1A mRNA, Fold change relative to vehicle control",BT474,27.15 fold
same,"CDKN1B mRNA, Fold change relative to vehicle control",BT474,0.14 fold
same,"CDKN2A mRNA, Fold change relative to vehicle control",BT474,1.43 fold
same,"CFLAR mRNA, Fold change relative to vehicle control",BT474,9.08 fold
same,"CHEK2 mRNA, Fold change relative to vehicle control",BT474,0.85 fold
same,"Cyclin E1 mRNA, Fold change relative to vehicle control",BT474,0.08 fold
same,"E2F1 mRNA, Fold change relative to vehicle control",BT474,0.51 fold
same,"GZMA mRNA, Fold change relative to vehicle control",BT474,3.66 fold
same,"HTATIP2 mRNA, Fold change relative to vehicle control",BT474,6.64 fold
same,"MDM2 mRNA, Fold change relative to vehicle control",BT474,0.99 fold
same,"RB1 mRNA, Fold change relative to vehicle control",BT474,0.86 fold
same,"S100A4 mRNA, Fold change relative to vehicle control",BT474,4.80 fold
same,"TERT mRNA, Fold change relative to vehicle control",BT474,0.08 fold
same,"TNFRSF1A mRNA, Fold change relative to vehicle control",BT474,35.64 fold
same,"TNFRSF10B mRNA, Fold change relative to vehicle control",BT474,9.22 fold
same,"TNFRSF25 mRNA, Fold change relative to vehicle control",BT474,7.11 fold
same,"TP53 mRNA, Fold change relative to vehicle control",BT474,459.09 fold
same,IC50,AsPC-1,4410 nM

# — patent publication US20200147039A1, “COMPOUNDS USEFUL IN INHIBITING HUMAN TREFOIL FACTOR 3” (NATIONAL UNIVERSITY OF SINGAPORE, priority 2017, published 2020)
